According to patent US20250206754A1, “PAN-CHEMOKINE ANTAGONISTS FOR USE IN TREATING CANCER AND IMMUNE DISORDERS” ("Micar Innovation" LTD., priority 2022, published 2025):

Tests used:
CCR9 = biological target: T1, CCR9 (Homo sapiens, UniProt P51686); assay: Ca^2+ mobilization assay, CCR9; assay type: cell-based
T1 sequence (P51686 1-369): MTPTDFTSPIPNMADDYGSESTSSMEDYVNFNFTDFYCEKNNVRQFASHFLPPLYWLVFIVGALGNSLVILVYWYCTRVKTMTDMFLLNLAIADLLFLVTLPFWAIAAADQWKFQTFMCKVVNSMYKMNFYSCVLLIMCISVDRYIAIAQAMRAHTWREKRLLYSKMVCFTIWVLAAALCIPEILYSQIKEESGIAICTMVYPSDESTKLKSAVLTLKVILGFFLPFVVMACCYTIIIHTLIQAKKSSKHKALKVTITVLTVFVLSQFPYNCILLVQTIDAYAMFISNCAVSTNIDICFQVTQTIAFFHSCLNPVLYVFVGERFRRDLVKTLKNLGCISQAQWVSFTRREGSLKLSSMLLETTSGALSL
Method: (§1) The Kb values are also retrieved. […] Finally, to make it more clear the second messenger output for Hit1 and confirm the nature of β-arrestin bias GTPγS and ERK assays were also performed. […] Considering that the ERK is directly related to β-arrestin path and binds directly to the arrestin it was concluded that this compound is β-arrestin biased (Table 1 and FIGS. 3A and 3B). Finally, several other potential hits were identified but the activities were in a range of 25-35% at 100 μM concentration and they were discarded in this disclosure.

CCR7 [1] = biological target: T2, CCR7 (Homo sapiens, UniProt P32248); assay: GTPγS assay, CCR7; assay type: biochemical
T2 construct: expressed in transfected cells
T2 sequence (P32248 25-378): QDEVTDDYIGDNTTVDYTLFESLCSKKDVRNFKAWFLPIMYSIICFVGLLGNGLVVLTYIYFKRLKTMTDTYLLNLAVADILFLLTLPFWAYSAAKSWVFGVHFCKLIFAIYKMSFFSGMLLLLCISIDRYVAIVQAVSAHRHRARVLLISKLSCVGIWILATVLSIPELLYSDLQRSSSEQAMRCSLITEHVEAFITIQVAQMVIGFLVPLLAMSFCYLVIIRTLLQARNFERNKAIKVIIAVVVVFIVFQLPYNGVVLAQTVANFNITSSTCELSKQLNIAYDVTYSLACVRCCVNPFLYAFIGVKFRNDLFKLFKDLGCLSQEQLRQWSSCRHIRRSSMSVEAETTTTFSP
Method: as §1
Current diversity data provide also several additional experimental evidences which are against colloid aggregation activity dependence: • Almost identical steep dose-response curves have been observed for the natural CCL19 and CCL21 agonists. Thus, it seems that this is not unique to Hit 1 case. • Hill coefficient of 1.5 in the ERK experiments and no steep slope (FIG. 3A). Moreover, the ERK dose-response curve looks like a typical single antagonist ligand. • At the same conditions as in the ERK assay the compound was in particular not active in the GTPγS assay up to 100 μM (FIG. 3B). […]

[2] = system: primary human keratinocytes; assay: Cell viability in the keratinocyte inflammation models; assay type: cell-based; details: in the cytokine release models
[3] = Maximal tolerated dose (MTD) study in BALB/c mice; assay type: in vivo; details: daily (QD) oral doses of 30 mg/kg and 150 mg/kg
Method: Design of the in vivo study: A total of 44 female BALB/c mice (12 mice for maximal tolerance dose (MTD) study; 32 mice for efficacy study) were used in the 4T-1-Luc study. The animals were specific pathogen free and approximately 4-5 weeks old at the initiation of the study.
MTD studies: Initially, 10 BALB/c mice were used for the maximal tolerated dose (MTD) response study determination. The mice were randomized based on body weight and were treated with Hit 1 compound with daily (QD) oral doses of 30 mg/kg and 150 mg/kg. Body weight was measured daily.

CCR3 = biological target: T3, CCR3 (Homo sapiens, UniProt P51677); assay: β-arrestin selectivity assay, CCR3; assay type: cell-based
T3 sequence (P51677 1-355): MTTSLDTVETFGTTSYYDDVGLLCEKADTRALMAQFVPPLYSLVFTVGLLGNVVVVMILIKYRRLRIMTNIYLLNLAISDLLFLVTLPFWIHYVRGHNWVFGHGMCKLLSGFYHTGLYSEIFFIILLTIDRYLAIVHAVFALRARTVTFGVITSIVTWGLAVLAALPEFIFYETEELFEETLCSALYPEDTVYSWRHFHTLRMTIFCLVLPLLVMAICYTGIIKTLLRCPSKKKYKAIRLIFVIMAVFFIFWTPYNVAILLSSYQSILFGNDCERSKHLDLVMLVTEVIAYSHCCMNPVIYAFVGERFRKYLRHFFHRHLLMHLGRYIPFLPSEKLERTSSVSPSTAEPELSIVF

CCR5 = CCR5 (Homo sapiens, UniProt P51681); assay: cAMP assay, CCR5; assay type: cell-based; details: CCR5 (data not shown)
Chain of CCR5 (P51681 whole entry): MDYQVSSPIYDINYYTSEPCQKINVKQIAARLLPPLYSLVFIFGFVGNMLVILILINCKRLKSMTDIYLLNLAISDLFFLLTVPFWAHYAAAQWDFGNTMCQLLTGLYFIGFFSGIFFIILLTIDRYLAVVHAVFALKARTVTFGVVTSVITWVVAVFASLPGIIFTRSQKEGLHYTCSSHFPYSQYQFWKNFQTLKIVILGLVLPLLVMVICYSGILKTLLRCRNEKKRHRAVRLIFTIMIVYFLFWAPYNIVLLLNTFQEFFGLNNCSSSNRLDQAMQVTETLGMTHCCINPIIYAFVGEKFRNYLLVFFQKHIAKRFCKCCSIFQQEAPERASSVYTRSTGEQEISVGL
Method: as §1

CCR7 [4] = biological target: T2, CCR7; assay: Ca^2+ mobilization assay, CCR7; assay type: cell-based
Method: Selected compounds were initially sent for both antagonist and agonist TANGO β-arrestin assays. […] Replacement only on the amide group with CN led to strong activity decrease in β-arrestin assay: only 31% activity at about 30 μM and similar one at 100 μM (Table 1). Five more derivatives with replaced amide group were also tested in parallel by Ca^2+ mobilization assay and they all were not active up to the tested concertation of 100 μM.
To examine the colloid aggregation possibility a β-lactamase enzymatic activity counterscreen assay was performed, which is the commonly adopted tool for detection of such properties of the compounds.

SMILES: NC(=O)c1ccccc1Oc1ncnc2sc(-c3ccccc3)cc12 [Hit 1, 2-({6-phenylthieno[2,3-d]pyrimidin-4-yl}oxy)benzamide]
- Kb (CCR9): 5.2 µM
- Hill-Slope (CCR9; Ca^2+ assay): 0.8
- IC50 (CCR9; Ca^2+ mobilization assay): 58 µM
- antagonist activity (CCR7 [1]; GTPγS assay, highest concentration of 100 μM): 16%
- activity in GTPγS assay (CCR7 [1]; up to 100 μM): not active
- cell viability [2]: Some inhibition of the cell viability
- behavior and side effects [3]: did not show abnormal behavior
- body weight loss [3]: A significant (>20%) body lost was not observed
- Hill coefficient (CCR3): 2.6
- IC50 (CCR3): 4.4 µM
- IC50 (CCR5): 50 µM
- inhibition at 100 µM (CCR7 [4]; 100 μM concentration, read-out: Ca^2+ assay (100 μM), Percent of inhibition): 63%
- Kb (CCR7 [4]; CCR7): 2.8 µM
- Hill slope (CCR7 [4]; Ca^2+ mobilization assay, CCR7): 2.6
- IC50 (CCR7 [4]; Ca^2+ mobilization assay, CCR7): 92 µM
- activity change with 0.01% Triton X-100 (CCR7 [4]; Ca^2+ mobilization assay, CCR7 expressed cells, preliminary data): no activity change
- IC50 (CCR7 [4]; similar Ca^2+ mobilization assay in an independent lab (data not shown)): 25 to 30 µM
